Measurements taken from PubChem BioAssay AID330 (DTP/NCI, 2004).
“And” between values parts separate entries of the source, which are not always exact repeats. Identical values can stand only once. Toxic doses and inconclusive results are not listed. The calls were made as follows: active = survival T/C of 150% or more; inactive = T/C below 125% in these data.

Test system: P388 leukemia ip, CD2F1 mice, survival T/C
Test: NCI In Vivo Anticancer Drug Screen. Data for tumor model P388 Leukemia (intraperitoneal) in CD2F1 (CDF1) mice
Conditions: endpoint: median survival time, higher = longer survival
Outline: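 Mice carrying the transplanted tumor received test compound or vehicle. Survival was recorded in each group, and the value is the treated-group measurement divided by that of the vehicle-treated control group.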

[1] = dose: 50.0 mg/kg/injection, schedule: Q01DX009 (ip), vehicle: saline with Tween-80
[2] = dose: 100.0 mg/kg/injection, schedule: Q01DX009 (ip), vehicle: saline with Tween-80
[3] = dose: 200.0 mg/kg/injection, schedule: Q01DX009 (ip), vehicle: saline with Tween-80
[4] = dose: 12.5 mg/kg/injection, schedule: Q01DX009 (ip), vehicle: Klucel (hydroxypropylcellulose) (HPC)
[5] = dose: 25.0 mg/kg/injection, schedule: Q01DX009 (ip), vehicle: Klucel (hydroxypropylcellulose) (HPC)
[6] = dose: 60.0 mg/kg/injection, schedule: Q01DX005 (ip), vehicle: saline with Tween-80
[7] = dose: 120.0 mg/kg/injection, schedule: Q01DX005 (ip), vehicle: saline with Tween-80
[8] = dose: 240.0 mg/kg/injection, schedule: Q01DX005 (ip), vehicle: saline with Tween-80
[9] = dose: 50.0 mg/kg/injection, schedule: Q01DX005 (ip), vehicle: saline
[10] = dose: 100.0 mg/kg/injection, schedule: Q01DX005 (ip), vehicle: saline
[11] = dose: 200.0 mg/kg/injection, schedule: Q01DX005 (ip), vehicle: saline
[12] = dose: 50.0 mg/kg/injection, schedule: Q01DX009 (ip), vehicle: saline
[13] = dose: 100.0 mg/kg/injection, schedule: Q01DX009 (ip), vehicle: saline
[14] = dose: 50.0 mg/kg/injection, schedule: Q01DX005 (ip), vehicle: Klucel (hydroxypropylcellulose) (HPC)
[15] = dose: 100.0 mg/kg/injection, schedule: Q01DX005 (ip), vehicle: Klucel (hydroxypropylcellulose) (HPC)
[16] = dose: 200.0 mg/kg/injection, schedule: Q01DX005 (ip), vehicle: Klucel (hydroxypropylcellulose) (HPC)
[17] = dose: 200.0 mg/kg/injection, schedule: Q01DX009 (ip), vehicle: saline
[18] = dose: 25.0 mg/kg/injection, schedule: Q01DX009 (ip), vehicle: saline with Tween-80
[19] = dose: 50.0 mg/kg/injection, schedule: Q01DX009 (ip), vehicle: Klucel (hydroxypropylcellulose) (HPC)
[20] = dose: 100.0 mg/kg/injection, schedule: Q01DX009 (ip), vehicle: Klucel (hydroxypropylcellulose) (HPC)
[21] = dose: 200.0 mg/kg/injection, schedule: Q01DX009 (ip), vehicle: Klucel (hydroxypropylcellulose) (HPC)
[22] = dose: 6.25 mg/kg/injection, schedule: Q01DX009 (ip), vehicle: saline with Tween-80
[23] = dose: 12.5 mg/kg/injection, schedule: Q01DX009 (ip), vehicle: saline with Tween-80
[24] = dose: 60.0 mg/kg/injection, schedule: Q01DX005 (ip), vehicle: Klucel (hydroxypropylcellulose) (HPC)
[25] = dose: 120.0 mg/kg/injection, schedule: Q01DX005 (ip), vehicle: Klucel (hydroxypropylcellulose) (HPC)

Measured: T/C

Cc1cc(Cl)ccc1NC(=O)/N=C1\NC(=O)CS1
inactive: [1] 87 % of control | [2] 100 % of control | [3] 110 % of control

C1CCC2OCCOCCOC3CCCCC3OCCOCCOC2C1 (stereo unspecified)
inactive: [4] 95 % of control and 96 % of control | [5] 114 % of control and 91 % of control

Cc1ccc2c(c1)CCCN2C=O
inactive: dose: 50.0 mg/kg/injection, schedule: Q04DX003 (ip), vehicle: saline with Tween-80 105 % of control | dose: 100.0 mg/kg/injection, schedule: Q04DX003 (ip), vehicle: saline with Tween-80 100 % of control | dose: 200.0 mg/kg/injection, schedule: Q04DX003 (ip), vehicle: saline with Tween-80 110 % of control

O=Cc1c(-c2ccccc2)nc2sc(-c3ccc4c(c3)OCO4)nn12
inactive: [6] 102 % of control | [7] 99 % of control | [8] 99 % of control

C#CCOC(=O)C12CCC(C)(C)CC1C1=CCC3C4(C)CCC(O)C(C)(CO)C4CCC3(C)C1(C)CC2 (stereo unspecified)
inactive: dose: 12.5 mg/kg/injection, schedule: Q01DX005 (ip), vehicle: saline with Tween-80 101 % of control | dose: 25.0 mg/kg/injection, schedule: Q01DX005 (ip), vehicle: saline with Tween-80 94 % of control

O=C(NC(CO)C(=O)O)c1ccccc1 (stereo unspecified)
inactive: [9] 100 % of control | [10] 100 % of control | [11] 100 % of control

NCCNC[Si](c1ccccc1)(c1ccccc1)c1ccccc1
inactive: dose: 15.0 mg/kg/injection, schedule: Q01DX005 (ip), vehicle: saline with Tween-80 102 % of control | dose: 30.0 mg/kg/injection, schedule: Q01DX005 (ip), vehicle: saline with Tween-80 102 % of control

CN=C(C)NC1CCCCC1
inactive: [12] 96 % of control | [13] 96 % of control

O=S(=O)(Nc1cccnc1)c1ccccc1
inactive: [6] 106 % of control | [7] 100 % of control | [8] 105 % of control

C#C/C=C/CC1OC(CC)/C=C\C=C/CC1Cl (stereo unspecified)
inactive: dose: 2.0 mg/kg/injection, schedule: Q01DX009 (ip), vehicle: Klucel (hydroxypropylcellulose) (HPC) 100 % of control | dose: 4.0 mg/kg/injection, schedule: Q01DX009 (ip), vehicle: Klucel (hydroxypropylcellulose) (HPC) 109 % of control | dose: 8.0 mg/kg/injection, schedule: Q01DX009 (ip), vehicle: Klucel (hydroxypropylcellulose) (HPC) 96 % of control | dose: 16.0 mg/kg/injection, schedule: Q01DX009 (ip), vehicle: Klucel (hydroxypropylcellulose) (HPC) 104 % of control

CCc1nc(N)nc(N)c1-c1ccc(NCCc2ccccc2)c(N)c1
inactive: [14] 90 % of control | [15] 96 % of control | [16] 100 % of control

ClC(Cl)=Nc1cc(Cl)c(Cl)cc1Cl
inactive: [12] 99 % of control | [13] 90 % of control | [17] 97 % of control

Cc1cc2sccc2cn1
inactive: [18] 100 % of control | [1] 100 % of control

CC(=O)Nc1ccc2nc(/C=C/c3ccc(N(C)C)cc3)c(=O)oc2c1
inactive: [6] 102 % of control | [7] 96 % of control | [8] 91 % of control

Cc1ccc(Br)cc1CCO
inactive: [14] 98 % of control and 97 % of control | [15] 99 % of control and 100 % of control | [16] 100 % of control and 120 % of control

BrC(Br)(c1ccccc1)C1OCCO1
inactive: [1] 109 % of control | [2] 109 % of control | [3] 113 % of control

CCN(CC)CC(O)CNc1ncnc(N)c1C(=C(C)C)c1ccc(Cl)cc1 (stereo unspecified)
inactive: [18] 100 % of control | [1] 100 % of control | [2] 90 % of control

Nc1nc2c(C(=O)N3CCCC3)nnn2c2cccc(Cl)c12
inactive: [6] 107 % of control | [7] 106 % of control | [8] 106 % of control

O=C(O)c1ccc2c3c(ccc(C(=O)O)c13)CC2
inactive: [5] 105 % of control | [19] 102 % of control | [20] 99 % of control

O=C1Oc2ccccc2OC1c1ccccc1 (stereo unspecified)
inactive: [19] 102 % of control | [20] 106 % of control | [21] 97 % of control

COC1(OC)C=NNc2nccn21
inactive: [6] 100 % of control | [7] 96 % of control | [8] 104 % of control

Oc1ccc2ccccc2c1C=Nc1ccc(N=Cc2c(O)ccc3ccccc23)cc1
inactive: dose: 100.0 mg/kg/injection, schedule: Q01DX001 (ip), vehicle: saline with Tween-80 91 % of control | dose: 200.0 mg/kg/injection, schedule: Q01DX001 (ip), vehicle: saline with Tween-80 90 % of control | dose: 400.0 mg/kg/injection, schedule: Q01DX001 (ip), vehicle: saline with Tween-80 91 % of control

CCCCNC(=O)C(C)OC(C)=O (stereo unspecified)
inactive: dose: 50.0 mg/kg/injection, schedule: Q01DX005 (ip), vehicle: saline with Tween-80 96 % of control | dose: 100.0 mg/kg/injection, schedule: Q01DX005 (ip), vehicle: saline with Tween-80 99 % of control | dose: 200.0 mg/kg/injection, schedule: Q01DX005 (ip), vehicle: saline with Tween-80 96 % of control

O=P(CCCCBr)(NCc1ccccc1)c1ccccc1 (stereo unspecified)
inactive: dose: 100.0 mg/kg/injection, schedule: Q04DX003 (ip), vehicle: Klucel (hydroxypropylcellulose) (HPC) 105 % of control | dose: 200.0 mg/kg/injection, schedule: Q04DX003 (ip), vehicle: Klucel (hydroxypropylcellulose) (HPC) 117 % of control

CN(C)c1ccc(/C=[N+](\[O-])C(C)(C)CO)cc1
inactive: [22] 100 % of control | [23] 102 % of control | [18] 100 % of control | [2] 96 % of control | [3] 97 % of control

CN1C(C)(C)CC(O)(C(=O)O)CC1(C)C
inactive: [9] 94 % of control | [10] 91 % of control | [11] 87 % of control

COC(=O)c1ccccc1NC1OC(CO)C(O)C1O (stereo unspecified)
inactive: [6] 104 % of control | [7] 98 % of control | [8] 93 % of control

CC1=C(O)c2ccccc2C(=O)C1=O
inactive: [23] 101 % of control | [18] 113 % of control and 90 % of control | [1] 105 % of control and 116 % of control | [2] 92 % of control | [3] 90 % of control

Fc1ccccc1/C=C/c1ccnnc1
inactive: [12] 94 % of control | [13] 95 % of control | [17] 103 % of control

CC(=O)OC1CN(c2ccc(Br)cc2)CC(OC(C)=O)CN(c2ccc(Br)cc2)C1 (stereo unspecified)
inactive: [19] 99 % of control | [20] 100 % of control | [21] 97 % of control

N#CCCN(CCC#N)c1ccc(CC2C(=O)N(c3cccc(S(=O)(=O)O)c3)N=C2C(=O)O)cc1 (stereo unspecified)
inactive: [6] 93 % of control | [7] 96 % of control | [8] 95 % of control

CC(CO)c1cc2c(cc1O)[C@@]1(C)CCCC(C)(C)[C@@H]1CC2 (stereo partly specified)
inactive: dose: 25.0 mg/kg/injection, schedule: Q01DX005 (ip), vehicle: Klucel (hydroxypropylcellulose) (HPC) 99 % of control | [14] 102 % of control | [15] 89 % of control | [16] 89 % of control and 93 % of control | dose: 400.0 mg/kg/injection, schedule: Q01DX005 (ip), vehicle: Klucel (hydroxypropylcellulose) (HPC) 88 % of control

CCOC(=O)c1ccc(NCc2ccc(CNc3ccc(C(=O)OCC)cc3)cc2)cc1
inactive: [22] 105 % of control | [23] 103 % of control | [18] 94 % of control | [1] 89 % of control | [2] 89 % of control

CN(C)CCCC1(O)c2ccccc2Sc2cc(Cl)ccc21 (stereo unspecified)
inactive: [6] 100 % of control | [7] 96 % of control

CN(C)c1c2ccccc2c(NC=O)c2ccccc12
inactive: [24] 102 % of control | [25] 95 % of control | dose: 240.0 mg/kg/injection, schedule: Q01DX005 (ip), vehicle: Klucel (hydroxypropylcellulose) (HPC) 86 % of control

CCCCC1(CCCCCCCCC(=O)OCC)OCCO1
inactive: [14] 96 % of control | [15] 97 % of control | [16] 97 % of control

CC(=O)Nc1c(Nc2ccc3c(=O)[nH]ccc3c2C)cc[nH]c1=O
inactive: [6] 102 % of control | [7] 104 % of control | [8] 103 % of control

Clc1ccc(C[Se][Se]Cc2ccc(Cl)cc2)cc1
inactive: dose: 6.25 mg/kg/injection, schedule: Q01DX009 (ip), vehicle: Klucel (hydroxypropylcellulose) (HPC) 109 % of control | [4] 108 % of control | [5] 101 % of control

O=S(=O)(O)CCCBr
inactive: [2] 100 % of control | [3] 104 % of control | dose: 400.0 mg/kg/injection, schedule: Q01DX009 (ip), vehicle: saline with Tween-80 95 % of control

Cc1n[nH]c(=O)n(/N=C/c2ccc(N(C)C)cc2)c1=O
inactive: [24] 98 % of control | [25] 97 % of control
